ChEMBL document CHEMBL5223090, “Annual review of lysine-specific demethylase 1 (LSD1/KDM1A) inhibitors in 2021” (Eur J Med Chem, 2022)
Blank lines part the entries; values can stand above or below the molecule they belong to.

Legend:
[1] = biological target: T1, Lysine-specific histone demethylase 1A (Homo sapiens, UniProt O60341)
THP-1 = experiment: cells; settings: Homo sapiens
MCF7 = experiment: cells; settings: Homo sapiens
A549 [2] = experiment: cells; settings: Homo sapiens
Bel-7402 = experiment: cells; settings: Homo sapiens
Histone deacetylase 2 = Histone deacetylase 2 (Homo sapiens, UniProt Q92769); experiment: Inhibition of HDAC2 (unknown origin)
Sequence of Histone deacetylase 2 (Q92769 whole entry): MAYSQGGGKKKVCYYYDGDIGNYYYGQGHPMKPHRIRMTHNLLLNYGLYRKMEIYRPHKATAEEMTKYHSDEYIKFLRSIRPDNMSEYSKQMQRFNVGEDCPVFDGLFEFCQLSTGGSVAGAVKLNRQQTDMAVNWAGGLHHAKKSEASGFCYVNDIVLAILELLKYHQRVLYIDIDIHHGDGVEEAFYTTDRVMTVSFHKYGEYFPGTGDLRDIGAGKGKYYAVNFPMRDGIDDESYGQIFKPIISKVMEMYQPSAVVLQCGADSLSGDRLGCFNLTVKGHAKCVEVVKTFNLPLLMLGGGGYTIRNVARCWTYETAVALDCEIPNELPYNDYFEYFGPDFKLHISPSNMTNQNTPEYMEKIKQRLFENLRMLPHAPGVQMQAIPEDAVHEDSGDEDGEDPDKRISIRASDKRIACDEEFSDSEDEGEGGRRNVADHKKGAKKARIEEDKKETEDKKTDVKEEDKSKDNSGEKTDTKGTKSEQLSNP

MDA-MB-231 = experiment: Antiproliferative activity against human MDA-MB-231 cells assessed as cell growth inhibition; type: functional, cell-based
PC-3 = experiment: Antiproliferative activity against human PC-3 cells assessed as cell growth inhibition; type: functional, cell-based
HCT-116 = experiment: Antiproliferative activity against human HCT-116 cells assessed as cell growth inhibition; type: functional, cell-based
HepG2 = experiment: Antiproliferative activity against human HepG2 cells assessed as cell growth inhibition; type: functional, cell-based
SK-OV-3 = experiment: Antiproliferative activity against human SK-OV-3 cells assessed as cell growth inhibition; type: functional, cell-based
[3] = Antiproliferative activity against human SGC7901/ADR cells assessed as cell growth inhibition; type: functional, cell-based; settings: SGC-7901
[4] = biological target: T1, Lysine-specific histone demethylase 1A; experiment: Inhibition of LSD1 (unknown origin) at 0.4 uM relative to control
MAO-B = biological target: T2, MAO-B (Homo sapiens, UniProt P27338); experiment: Inhibition of MAO-B (unknown origin) at 0.4 uM relative to control
T2 sequence (P27338 whole entry): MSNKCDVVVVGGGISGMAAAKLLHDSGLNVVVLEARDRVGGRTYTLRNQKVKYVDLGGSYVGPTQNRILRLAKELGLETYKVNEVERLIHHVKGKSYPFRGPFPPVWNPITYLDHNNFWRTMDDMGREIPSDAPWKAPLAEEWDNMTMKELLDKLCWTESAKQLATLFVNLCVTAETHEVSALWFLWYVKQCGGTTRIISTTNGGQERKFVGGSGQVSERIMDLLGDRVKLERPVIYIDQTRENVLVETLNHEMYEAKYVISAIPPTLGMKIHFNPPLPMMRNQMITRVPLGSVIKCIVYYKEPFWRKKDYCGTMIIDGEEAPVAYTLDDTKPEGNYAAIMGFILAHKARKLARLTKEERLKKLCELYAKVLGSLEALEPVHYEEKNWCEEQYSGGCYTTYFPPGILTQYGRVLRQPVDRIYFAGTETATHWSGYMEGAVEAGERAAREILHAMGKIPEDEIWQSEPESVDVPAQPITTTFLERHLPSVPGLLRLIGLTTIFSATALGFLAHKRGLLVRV

SGC-7901 = experiment: Antiproliferative activity against human SGC-7901 cells assessed as cell growth inhibition; type: functional, cell-based
MAO-A = biological target: T3, MAO-A (Homo sapiens, UniProt P21397); experiment: Inhibition of MAO-A (unknown origin) at 0.4 uM relative to control
T3 sequence (P21397 whole entry): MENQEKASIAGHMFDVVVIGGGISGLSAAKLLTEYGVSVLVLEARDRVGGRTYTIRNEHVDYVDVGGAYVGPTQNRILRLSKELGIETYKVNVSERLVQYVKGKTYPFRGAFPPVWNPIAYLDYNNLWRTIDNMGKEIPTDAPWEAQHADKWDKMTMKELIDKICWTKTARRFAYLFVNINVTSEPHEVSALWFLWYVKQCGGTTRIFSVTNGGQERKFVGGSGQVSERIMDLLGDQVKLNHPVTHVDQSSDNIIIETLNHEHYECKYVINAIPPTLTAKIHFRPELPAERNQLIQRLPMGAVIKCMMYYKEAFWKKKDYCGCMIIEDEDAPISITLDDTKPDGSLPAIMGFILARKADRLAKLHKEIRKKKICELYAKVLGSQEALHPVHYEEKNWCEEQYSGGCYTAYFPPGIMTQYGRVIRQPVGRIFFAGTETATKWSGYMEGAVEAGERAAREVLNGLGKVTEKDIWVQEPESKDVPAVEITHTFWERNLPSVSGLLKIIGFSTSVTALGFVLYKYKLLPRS

in vitro = settings: human, THLE-2 cells
NCI-H460 = experiment: cells; settings: Homo sapiens
MGC-803 = experiment: cells; settings: Homo sapiens
A549 [5] = tested on: A549

IC50 [1]: 1.47 µM
SMILES: Oc1ccc(CC2NCCc3cc(O)c(O)cc32)cc1 (configuration not stated) [HIGENAMINE]

IC50 (THP-1): 2.15 µM | IC50 (MCF7): 4960 µM | IC50 (A549 [2]): 1.58 µM
SMILES: COc1cc(F)c(/C=C/c2ccc(C(=O)NO)cc2)cc1OC

IC50 (MCF7): 7.02 µM | IC50 (A549 [2]): 7.61 µM
SMILES: Cn1c(C(=O)CC(=O)Nc2cccc3c2CCCN3Cc2ccc(OC3CCNCC3)cc2)cc2ccccc21

IC50 [1]: 0.54 µM
SMILES: Cn1c(C(=O)Nc2cccc3c2N(Cc2ccc(OC4CCNCC4)cc2)CCC3)cc2cc(F)ccc21

IC50 [1]: 2.08 µM
SMILES: O=C(c1ccc(OCCN2CCCCC2)cc1)c1c(-c2ccc(O)cc2)sc2cc(O)ccc12 [RALOXIFENE]

IC50 [1]: 0.89 µM
SMILES: Oc1ccc(C2CNCCc3c2cc(O)c(O)c3Cl)cc1 (configuration not stated) [FENOLDOPAM]

IC50 (MCF7): 6.91 µM | IC50 (A549 [2]): 5.3 µM
SMILES: Cn1c(C(=O)Nc2cccc3c2CCCN3Cc2ccc(OC3CCNCC3)cc2)cc2sccc21

IC50 (MCF7): 2.35 µM | IC50 (A549 [2]): 2.13 µM
SMILES: Cn1c(C(=O)Nc2cccc3c2CCCN3Cc2ccc(OC3CCNCC3)cc2[N+](=O)[O-])cc2sccc21

IC50 (MCF7): 0.35 µM | IC50 (A549 [2]): 8.49 µM
SMILES: O=C(CC(=O)c1ccc(C(F)(F)F)cc1)Nc1cccc2c1CCCN2Cc1ccc(OC2CCNCC2)cc1

IC50 (Histone deacetylase 2): > 100 µM
SMILES: N/C(=N\O)c1cccc(/C=C/c2ccnc(-c3cc(F)ccc3O)c2)c1

Second part, the molecule before the results:

SMILES: COc1ccc(S(=O)(=O)N(CCSC(=S)N2CCN(C)CC2)c2cc(OC)c(OC)c(OC)c2)cc1
IC50 (Bel-7402): 0.32 µM

SMILES: Cc1ccc(-c2cc(/C=C/c3ccc(C(=O)NO)cc3)ccn2)c(F)c1
IC50 (Histone deacetylase 2): > 10 µM

SMILES: Nc1ccc(C(=O)/C=C/c2ccccc2F)cc1
IC50 (MCF7): 13.2 µM | IC50 (MDA-MB-231): 34.7 µM

SMILES: O=S1(=O)CCCCN(S(=O)(=O)c2ccc(-c3cnc(C4CC4)o3)cc2)c2ccccc21
IC50 (PC-3): 5.88 µM | IC50 (HCT-116): 0.263 µM | IC50 (HepG2): 2.17 µM | IC50 (SK-OV-3): 1.62 µM

SMILES: COc1cc2c(c(O)c1OC)c(=O)c1ccccc1n2C [ARBORININE]
IC50 [3]: 0.24 µM | inhibition [4]: 99.3% | inhibition at 0.4 µM (MAO-B): 31% | IC50 (SGC-7901): 1.96 µM | inhibition at 0.4 µM (MAO-A): 23.7%

SMILES: CNCCCNCc1coc2cc(-c3ccc(C)cc3)c(-c3ccc(C#N)cc3)cc12
IC50 (THP-1): 4.87 µM | IC50 (in vitro): 4.2 µM | IC50 (NCI-H460): 1.87 µM | IC50 (MGC-803): 6.47 µM | IC50 (MCF7): 3.36 µM | IC50 (A549 [2]): 4.08 µM

SMILES: COc1cc(Br)c(/C=C/c2ccc(C(=O)NO)cc2)cc1OC
IC50 (THP-1): 3.39 µM | IC5 (A549 [5]): 6.23 µM
